From the NIST ThermoML archive (doi:10.1016/j.jct.2019.03.012)
Numbers after ± are expanded uncertainties.

Key:
[1] = DSC
[2] = Molar enthalpy of transition or fusion; conditions: Crystal 1; DSC

## CC[NH3+].O=[N+]([O-])[O-] [ethylammonium nitrate]
[1]; Crystal 1
  Triple point temperature: 285.15 ± 6 K
[1]; Glass
  Glass transition temperature: -41.00 ± 6 °C
[2]
  Molar enthalpy of transition or fusion: 3.15 ± 0.155 kcal/mol
